Experimental findings from ChEMBL document CHEMBL1133343, “Synthesis and antifungal activity of a ferrocene-fluconazole analogue” (2000) are described below.

What all share (type): functional
The subject of experiment [1] is Pichia kudriavzevii. Nature of the experiment: Compound was tested for antifungal activity against growth of three strains Candida krusei.
Experiment [2] has as its system Candida parapsilosis. Nature of the experiment: Compound was tested for antifungal activity against growth of two strains Candida parapsilosis. Particulars: Lodderomyces parapsilosis.
In experiment [3] the test system is Candida albicans. Nature of the experiment: Compound was tested for antifungal activity against growth of two strains Candida glabrata.
The test system of experiment [4] is Candida albicans. Put plainly: Compound was tested for antifungal activity against growth of three strains of Candida albicans.

Usually MIC80 stands for the lowest concentration that inhibits either 80% of growth or 80% of the strains tested, depending on the study. Consider `OC(Cn1cncn1)(Cn1cncn1)c1ccc(F)cc1F` [FLUCONAZOLE], for which the MIC80 in experiment [1] is greater than 48 µg/mL; in experiment [2] it was less than 12 µg/mL; in experiment [3], greater than 48 µg/mL; in experiment [4], less than 1.5 µg/mL.
